# Assay results from ChEMBL document CHEMBL6103537 (J Med Chem, 2025).
# Calls of active or inactive are those of the source. The rule behind the calls is not given here.
# How the values were obtained:
# [1] = target: Protein cereblon/Signal transducer and activator of transcription 2 (Homo sapiens) (UniProt Q96SW2+P52630); test: PROTAC activity at STAT2/CRBN in human PBMC cells assessed as reduction in STAT2 level at 10 uM incubated for 18 hrs by Western blot analysis relative to control; format: cell-based
# [2] = Metabolic stability in human liver microsome assessed as parent compound remaining measured at 45 mins in presence of NADPH by LC-MS/MS analysis; format: ADME; conditions: liver microsomes, read-out: Stability
# [3] = Metabolic stability in dog liver microsome assessed as half life measured upto 60 mins in presence of NADPH by LC-MS/MS analysis; format: ADME, Canis lupus familiaris; conditions: liver microsomes
# [4] = target: T1, Protein cereblon/Signal transducer and transcription activator 6 (Mus musculus) (UniProt P52633+Q8C7D2); test: In vivo PROTAC activity at STAT6/CRBN in BALB/c mouse assessed as reduction in STAT6 level in lung at 200 mg/kg, ip measured at 2 hrs by Western blot analysis; format: functional, organism-based; design: scale not given: the % may be the effect or the level left
# [5] = target: T1, Protein cereblon/Signal transducer and transcription activator 6 (Mus musculus); test: In vivo PROTAC activity at STAT6/CRBN in BALB/c mouse assessed as reduction in STAT6 level in liver at 200 mg/kg, ip measured at 2 to 24 hrs by Western blot analysis; format: functional, organism-based; design: scale not given: the % may be the effect or the level left; conditions: time 2-24 hrs
# [6] = target: T2, Protein cereblon/Signal transducer and activator of transcription 6 (Homo sapiens, UniProt P42226+Q96SW2); test: PROTAC activity at STAT6/CRBN in human PBMC cells assessed as reduction in STAT6 level at 10 uM incubated for 18 hrs by Western blot analysis relative to control; format: cell-based
# [7] = target: Protein cereblon/Signal transducer and activator of transcription 5A/Signal transducer and activator of transcription 5B (Homo sapiens) (UniProt P42229+P51692+Q96SW2); test: PROTAC activity at STAT5/CRBN in human PBMC cells assessed as reduction in STAT5 level at 10 uM incubated for 18 hrs by Western blot analysis relative to control; format: cell-based
# [8] = Stability in rat plasma assessed as parent compound remaining measured at 120 mins by LC-MS/MS analysis; format: ADME, cell-free; conditions: read-out: Stability
# [9] = target: T3, Protein cereblon/Signal transducer and activator of transcription 4 (Homo sapiens) (UniProt Q96SW2+Q14765); test: PROTAC activity at STAT4/CRBN in human PBMC cells assessed as reduction in STAT4 level at 10 uM incubated for 18 hrs by Western blot analysis relative to control; format: cell-based
# [10] = target: T1, Protein cereblon/Signal transducer and transcription activator 6 (Mus musculus); test: In vivo PROTAC activity at STAT6/CRBN in BALB/c mouse assessed as reduction in STAT6 level in lung at 200 mg/kg, ip measured at 24 hrs by Western blot analysis; format: functional, organism-based; design: scale not given: the % may be the effect or the level left
# [11] = target: T2, Protein cereblon/Signal transducer and activator of transcription 6; test: PROTAC activity at STAT6 at Y641 residue/CRBN in human L-1236 cells assessed as reduction in STAT6 level at 10 uM incubated for 24 hrs by Western blot analysis; format: cell-based
# [12] = target: Protein cereblon/Eukaryotic peptide chain release factor GTP-binding subunit ERF3A (Homo sapiens) (UniProt Q96SW2+P15170); test: PROTAC activity at CRBN/GSPT1 in human Jurkat cells assessed as degradation of GSPT1 protein at 0.01 to 10 uM incubated for 20 hrs by Western blotting analysis; format: cell-based; conditions: dose 0.01-10 µM
# [13] = Metabolic stability in human liver microsome assessed as parent compound remaining measured at 30 mins in presence of NADPH by LC-MS/MS analysis; format: ADME; conditions: liver microsomes, read-out: Stability
# [14] = Stability in dog plasma assessed as half life measured upto 60 mins by LC-MS/MS analysis; format: ADME, cell-free, Canis lupus familiaris
# [15] = target: T2, Protein cereblon/Signal transducer and activator of transcription 6; test: PROTAC activity at STAT6/CRBN in human MV4-11 cells assessed as reduction in STAT6 level at 2 uM measured upto 1200 mins in presence of lenalidomide by HiBiT bioluminescence assay; format: cell-based; conditions: Jurkat
# [16] = target: Protein cereblon/Signal transducer and activator of transcription 1-alpha/beta (Homo sapiens) (UniProt P42224+Q96SW2); test: PROTAC activity at STAT1/CRBN in human MV4-11 cells assessed as reduction in STAT1 level at upto 10 uM incubated for 12 hrs by Western blot analysis; format: cell-based
# [17] = target: T2, Protein cereblon/Signal transducer and activator of transcription 6; test: PROTAC activity at STAT6/CRBN in human L-1236 cells assessed as reduction in STAT6 level at 10 uM incubated for 24 hrs by Western blot analysis; format: cell-based
# [18] = Metabolic stability in mouse liver microsome assessed as parent compound remaining measured at 15 mins in presence of NADPH by LC-MS/MS analysis; format: ADME; conditions: liver microsomes, read-out: Stability
# [19] = target: T2, Protein cereblon/Signal transducer and activator of transcription 6; test: PROTAC activity at STAT6/CRBN in human MV4-11 cells assessed as reduction in STAT6 level at 2 uM by HiBiT bioluminescence assay; format: cell-based; conditions: time <= 1200.0 min
# [20] = Stability in human plasma assessed as parent compound remaining measured at 60 mins by LC-MS/MS analysis; format: ADME, cell-free; conditions: read-out: Stability
# [21] = target: T2, Protein cereblon/Signal transducer and activator of transcription 6; test: PROTAC activity at STAT6/CRBN in human MV4-11 cells assessed as reduction in STAT6 level at 2 uM measured upto 1200 mins in presence of AK-068 by HiBiT bioluminescence assay; format: cell-based
# [22] = Stability in human plasma assessed as parent compound remaining measured at 5 mins by LC-MS/MS analysis; format: ADME, cell-free; conditions: read-out: Stability
# [23] = target: T2, Protein cereblon/Signal transducer and activator of transcription 6; test: PROTAC activity at STAT6 at Y641 residue/CRBN in human L-1236 cells assessed as reduction in STAT6 level incubated for 24 hrs by Western blot analysis; format: cell-based; conditions: dose 10.0 µM
# [24] = Stability in monkey plasma assessed as parent compound remaining measured at 120 mins by LC-MS/MS analysis; format: ADME, cell-free, Macaca mulatta; conditions: rhesus monkey, read-out: Stability
# [25] = target: T3, Protein cereblon/Signal transducer and activator of transcription 4 (Homo sapiens); test: PROTAC activity at STAT4/CRBN in human MV4-11 cells assessed as reduction in STAT4 level at 10 uM incubated for 12 hrs by Western blot analysis; format: cell-based
smiles,measurement,setting,value
CC(C)(C)[C@H](NC(=O)c1cc2cc(C(F)(F)P(=O)(O)O)ccc2s1)C(=O)N1C[C@@H](OCCCCCC#Cc2cccc3c2CN(C2CCC(=O)NC2=O)C3=O)C[C@H]1C(=O)N1CCO[C@H](c2ccccc2)C1 (stereo not given in full),Activity,[1],No effect
same,remaining at 0.75 h,[2],91%
same,half-life,[3],> 2 h
same,Activity,[4],> 70%
same,Activity,[5],> 90%
same,Emax,[6],> 90%
same,Activity,[7],No effect
same,remaining at 2 h,[8],67%
same,Activity,[9],No effect
same,Activity,[10],> 70%
same,Activity,[11],No effect
same,Activity,[12],No effect
same,remaining at 0.5 h,[13],92%
same,half-life,[14],> 2 h
same,Activity,[15],Active
same,Activity,[16],No effect
same,Activity,[17],No effect
same,remaining at 0.25 h,[18],98%
same,Activity,[19],Time-dependent-effect
same,remaining at 1 h,[20],94%
same,Activity,[21],Active
same,remaining at 5 min,[22],79%
same,Activity,[23],Dose-dependent-effect
same,remaining at 2 h,[24],82%
same,Activity,[25],inactive
